Laboratory results: patent US6995153B2, “Fused bicyclic pyrimidine derivatives” (Kyorin Pharmaceutical. Co., Ltd., priority 2002, dated 2006)

Tests used:
NK1 receptor = target: T1, NK1 receptor (Cavia porcellus, UniProt P30547); experiment: Test for NK1 receptor antagonist: substance P concentration-response in isolated guinea pig ileum, Schild analysis; details: against substance P, 10 min pretreatment, method of Schild
T1 construct: from tissue; host or cells: isolated guinea pig ileum
Method: (1) Test for NK1 Receptor Antagonist
The method used was according to the method proposed by S. Dion et al.(Dion et al., Life Sciences 41(1987): 2269), to which minor modifications were made.
Guinea pigs were stunned by a blow on the head and were exsanguinated from the carotid artery and ilea were isolated. The ileum was mounted in an organ bath containing Tyrode's solution which was maintained at 32° C., and gased with 95% O2 and 5% CO2. The ileum was subjected to a resting tension of 1-gram and allowed to equilibrate for 20 minutes before the experiment was started. As a control, a concentration-response curve for substance P in the absence of any of test compounds was used. The NK1 receptor antagonist activity of each test compound was determined by a concentration-response curve obtained by pretreating at least three concentrations of the test compound for 10 minutes and subsequently applying substance P in a cumulative manner. The Kb values were determined according to the method of Schild and the results are shown in Table 1 (Schild Brit. J. Pharmacol. 14(1959): 49).
The composition of the Tyrode's solution was as follows: NaCl=136.9, KCl=2.7, CaCl2.2H2O=2.5, MgCl2.6H2O=1.0, NaH2PO4.2H2O=0.4, NaHCO3=11.9, glucose=11.1(mmol/L)

Guinea pigs = experiment: Cystometry test on guinea pigs with cut spinal cord (effective bladder capacity); type: in vivo; details: guinea pig
Source text: (2) Cystometry Test on Guinea Pigs
The method used was according to the method proposed by J S. Peterson et al. (Peterson J S. et al., J. Pharmacol. Methods 21(1989): 231), to which minor modifications were made.
Guinea pigs were anesthetized with halothane and the tenth thoracic spinal cord was cut in each animal. Subsequently, both ureters were ligated and were cut on the kidney-side. Polyethylene catheters were inserted into the bladder to provide an injection pathway for physiological saline and a pathway for the measurement of intravesical pressure. Each animal was restricted in a Ballman cage and was left for more than 2 hours. Subsequently, room-temperature saline was injected through the bladder catheter into the bladder at a rate of 6 mL/hr to conduct a cystometry test. Once the effective bladder capacity was stabilized, a test compound was intravenously administered into the jugular vein. The effective bladder capacity is defined as the volume of saline injected from one urination to the next. The effect of each test compound was determined as the increase in the average bladder volume, which was determined based on the average bladder volume measured 30 minutes prior to the administration of the test compound and the average bladder volume measured every 30 minutes after the administration of the test compound.

T1 sequence (P30547 whole entry): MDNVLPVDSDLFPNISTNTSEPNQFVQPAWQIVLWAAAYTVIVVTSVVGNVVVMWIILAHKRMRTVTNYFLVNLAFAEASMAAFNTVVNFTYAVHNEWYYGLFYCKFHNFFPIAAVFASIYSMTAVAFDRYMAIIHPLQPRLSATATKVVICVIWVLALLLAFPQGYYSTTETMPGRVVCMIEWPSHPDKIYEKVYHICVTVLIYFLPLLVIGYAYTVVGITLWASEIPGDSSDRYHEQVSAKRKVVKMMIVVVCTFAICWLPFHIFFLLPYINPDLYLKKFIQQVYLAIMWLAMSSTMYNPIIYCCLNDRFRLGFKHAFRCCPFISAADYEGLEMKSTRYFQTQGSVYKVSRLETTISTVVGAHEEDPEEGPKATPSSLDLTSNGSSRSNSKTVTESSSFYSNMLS

| SMILES | Kb (NK1 receptor) [nM] | also measured |
| --- | --- | --- |
| O=C1c2c(nc(N3CCOCC3)nc2-c2ccccc2F)OCCCN1Cc1cc(C(F)(F)F)cc(C(F)(F)F)c1 [Example 2, 5-[3,5-bis(trifluoromethyl)benzyl]-7-(2-fluorophenyl)-9-(morpholine-4-yl)-6-oxo-2,3,4,5-tetrahydro-6H-pyrimido[4,5-b][1,5]oxazocine] | 0.294 | – |
| O=C1c2c(nc(N3CCC(N4CCCC4)CC3)nc2-c2ccc(F)cc2)OCCCN1Cc1cc(C(F)(F)F)cc(C(F)(F)F)c1 [Example 13, 5-[3,5-bis(trifluoromethyl)benzyl]-7-(4-fluorophenyl)-6-oxo-9-[4-(pyrrolidine-1-yl)piperidine-1-yl]-2,3,4,5-tetrahydro-6H-pyrimido[4,5-b][1,5]oxazocine] | 0.217 | – |
| Cc1ccccc1-c1nc(N2CCN(c3ncccn3)CC2)nc2c1C(=O)N(Cc1cc(C(F)(F)F)cc(C(F)(F)F)c1)CCCO2 [Example 14, 5-[3,5-bis(trifluoromethyl)benzyl]-7-(2-methylphenyl)-6-oxo-9-[4-(pyrimidine-2-yl)piperazine-1-yl]-2,3,4,5-tetrahydro-6H-pyrimido[4,5-b][1,5]oxazocine] | 0.798 | – |
| CC(=O)N1CCN(c2nc3c(c(-c4ccccc4C)n2)C(=O)N(Cc2cc(C(F)(F)F)cc(C(F)(F)F)c2)CCCO3)CC1 [Example 16, 9-(4-acetylpiperazine-1-yl)-5-[3,5-bis(trifluoromethyl)benzyl]-7-(2-methylphenyl)-6-oxo-2,3,4,5-tetrahydro-6H-pyrimido[4,5-b][1,5]oxazocine] | 0.105 | Increase in bladder capacity (%) (Guinea pigs; 0.3 mg/kg i.v.): 59.4%; melting point: 160.5 to 163.5 °C |
| Cc1ccccc1-c1nc(-n2ccnc2)nc2c1C(=O)N(Cc1cc(C(F)(F)F)cc(C(F)(F)F)c1)CCCO2 [Example 18, 5-[3,5-bis(trifluoromethyl)benzyl]-9-(imidazole-1-yl)-7-(2-methylphenyl)-6-oxo-2,3,4,5-tetrahydro-6H-pyrimido[4,5-b][1,5]oxazocine] | 0.459 | – |
| Cc1ccccc1-c1nc(N2CCS(=O)(=O)CC2)nc2c1C(=O)N(Cc1cc(C(F)(F)F)cc(C(F)(F)F)c1)CCCO2 [Example 20, 5-[3,5-bis(trifluoromethyl)benzyl]-9-(1,1-dioxothiomorpholine-4-yl)-7-(2-methylphenyl)-6-oxo-2,3,4,5-tetrahydro-6H-pyrimido[4,5-b][1,5]oxazocine] | 0.0794 | Increase in bladder capacity (%) (Guinea pigs; 0.3 mg/kg i.v.): 40.4% |
| Cc1ccccc1-c1nc(N2CCC(N(C)C)C2)nc2c1C(=O)N(Cc1cc(C(F)(F)F)cc(C(F)(F)F)c1)CCCO2 (centres unmarked) [Example 25, 5-[3,5-bis(trifluoromethyl)benzyl]-9-[3-(dimethylamino)pyrrolidine-1-yl]-7-(2-methylphenyl)-6-oxo-2,3,4,5-tetrahydro-6H-pyrimido[4,5-b][1,5]oxazocine] | 0.427 | – |
| Cc1ccccc1-c1nc(N2CCCN(C)CC2)nc2c1C(=O)N(Cc1cc(C(F)(F)F)cc(C(F)(F)F)c1)CCCO2 [Example 26, 5-[3,5-bis(trifluoromethyl)benzyl]-9-(4-methylhomopiperazine-1-yl)-7-(2-methylphenyl)-6-oxo-2,3,4,5-tetrahydro-6H-pyrimido[4,5-b][1,5]oxazocine] | 0.398 | – |
| CC(=O)NC1CCN(c2nc3c(c(-c4ccccc4C)n2)C(=O)N(Cc2cc(C(F)(F)F)cc(C(F)(F)F)c2)CCCO3)C1 (centres unmarked) [Example 27, 5-[3,5-bis(trifluoromethyl)benzyl]-9-[3-(acetylamino)pyrrolidine-1-yl]-7-(2-methylphenyl)-6-oxo-2,3,4,5-tetrahydro-6H-pyrimido[4,5-b][1,5]oxazocine] | 0.44 | – |
| COc1ccccc1-c1nc(N2CCN(C(C)=O)CC2)nc2c1C(=O)N(Cc1cc(C(F)(F)F)cc(C(F)(F)F)c1)CCCO2 [Example 29, 9-(4-acetylpiperazine-1-yl)-5-[3,5-bis(trifluoromethyl)benzyl]-7-(2-methoxyphenyl)-6-oxo-2,3,4,5-tetrahydro-6H-pyrimido[4,5-b][1,5]oxazocine] | 0.1 | – |
| CC(=O)NC1CCN(c2nc3c(c(-c4ccccc4C)n2)C(=O)N(Cc2cc(C(F)(F)F)cc(C(F)(F)F)c2)CCCO3)CC1 [Example 37, 9-[4-(acetylamino)piperidine-1-yl]-5-[3,5-bis(trifluoromethyl)benzyl]-7-(2-methylphenyl)-6-oxo-2,3,4,5-tetrahydro-6H-pyrimido[4,5-b][1,5]oxazocine] | 0.151 | – |
| Cc1ccccc1-c1nc(N2CCC(NS(C)(=O)=O)CC2)nc2c1C(=O)N(Cc1cc(C(F)(F)F)cc(C(F)(F)F)c1)CCCO2 [Example 38, 5-[3,5-bis(trifluoromethyl)benzyl]-9-[4-(methylsulfonylamino)piperidine-1-yl]-7-(2-methylphenyl)-6-oxo-2,3,4,5-tetrahydro-6H-pyrimido[4,5-b][1,5]oxazocine] | 0.214 | – |
| CC(=O)N1CCCN(c2nc3c(c(-c4ccccc4C)n2)C(=O)N(Cc2cc(C(F)(F)F)cc(C(F)(F)F)c2)CCCO3)CC1 [Example 41, 9-(4-acetylhomopiperazine-1-yl)-5-[3,5-bis(trifluoromethyl)benzyl]-7-(2-methylphenyl)-6-oxo-2,3,4,5-tetrahydro-6H-pyrimido[4,5-b][1,5]oxazocine] | 0.308 | Increase in bladder capacity (%) (Guinea pigs; 0.3 mg/kg i.v.): 36.8% |
| COc1ccccc1-c1nc(N2CCS(=O)(=O)CC2)nc2c1C(=O)N(Cc1cc(C(F)(F)F)cc(C(F)(F)F)c1)CCCO2 [Example 43, 5-[3,5-bis(trifluoromethyl)benzyl]-9-(1,1-dioxothiomorpholine-4-yl)-7-(2-methoxyphenyl)-6-oxo-2,3,4,5-tetrahydro-6H-pyrimido[4,5-b][1,5]oxazocine] | 0.123 | – |
| Cc1ccccc1-c1nc(N2CCN(C)CC2)nc2c1C(=O)N(Cc1cc(C(F)(F)F)cc(C(F)(F)F)c1)CCCO2 [Example 44, 5-[3,5-bis(trifluoromethyl)benzyl]-7-(2-methylphenyl)-9-(4-methylpiperazine-1-yl)-6-oxo-2,3,4,5-tetrahydro-6H-pyrimido[4,5-b][1,5]oxazocine] | 0.00631 | – |
| Cc1ccc(-c2c3n(c(=O)c4ncccc24)CC[C@@H](C)CN(Cc2cc(C(F)(F)F)cc(C(F)(F)F)c2)C3=O)cc1 [TAK-637, reference compound] | 0.269 | Increase in bladder capacity (%) (Guinea pigs; 0.3 mg/kg i.v.): 12.0%; Increase in bladder capacity (%) (Guinea pigs; 1 mg/kg i.v.): 23.8%; Increase in bladder capacity (%) (Guinea pigs; 3 mg/kg i.v.): 20.5% |
